From patent US20150216171A1, “HERBICIDALLY ACTIVE BICYCLOARYL CARBOXYLIC ACID AMIDES” (BAYER CROPSCIENCE AG, priority 2012, published 2015)

How the values were obtained:
Format in all cases: in vivo
wheat [1] = assay: Pre-emergence test, damage to crop plants; conditions: application rate 320 g/ha, scored visually after 3 weeks
Source text: (§1) Seeds of monocotyledonous and dicotyledonous weed plants and crop plants are laid out in wood-fiber pots in sandy loam and covered with soil. The inventive compounds, formulated in the form of wettable powders (WP) or as emulsion concentrates (EC), are then applied to the surface of the soil cover in the form of an aqueous suspension or emulsion at a water application rate equating to 600 to 800 l/ha, with addition of 0.2% wetting agent. After the treatment, the pots are placed in a greenhouse and kept under good growth conditions for the test plants. The damage to the trial plants is scored visually after a test period of 3 weeks by comparison with untreated controls (herbicidal activity in percent (%): 100% efficacy=the plants have died, 0% efficacy=like control plants). In this test, for example, compounds no. […] Compounds no. […] Compounds no.

corn [2] = assay: Pre-emergence test, damage to crop plants; conditions: application rate 320 g/ha, scored visually after 3 weeks
Source text: as §1

wheat [3] = assay: Post-emergence test, damage to crop plants; conditions: application rate 80 g/ha, scored visually after about 3 weeks
Experimental: (§2) Seeds of monocotyledonous and dicotyledonous weed and crop plants are laid out in sandy loam in wood-fiber pots, covered with soil and cultivated in a greenhouse under good growth conditions. 2 to 3 weeks after sowing, the test plants are treated at the one-leaf stage. The inventive compounds, formulated in the form of wettable powders (WP) or as emulsion concentrates (EC), are then sprayed as aqueous suspension or emulsion at a water application rate equating to 600 to 800 I/ha with the addition of 0.2% of wetting agent onto the green parts of the plants. After the trial plants have been left to stand in a greenhouse under optimal growth conditions for about 3 weeks, the efficacy of the formulations is scored visually in comparison to untreated controls (herbicidal action in percent (%): 100% efficacy=the plants have died, 0% efficacy=like control plants). In this test, for example, compounds no. […] Compounds no. […] Compounds no.

corn [4] = assay: Post-emergence test, damage to crop plants; conditions: application rate 80 g/ha, scored visually after about 3 weeks
Experimental: as §2

rice = assay: Post-emergence test, damage to crop plants; conditions: application rate 80 g/ha, scored visually after about 3 weeks
Experimental: as §2

Compound | damage in wheat (wheat [1]) | damage in corn (corn [2]) | damage in wheat (wheat [3]) | damage in corn (corn [4]) | damage in rice (rice)
CC1=Cc2c(ccc(C(=O)Nc3nonc3-n3cncn3)c2Cl)S1(=O)=O [60-115] | did not cause any damage at all | did not cause any damage at all |  |  | 
CC1=Cc2c(ccc(C(=O)Nc3nnnn3Cc3ccc(Cl)cc3)c2Cl)S1(=O)=O [59-51] |  |  | did not cause any damage at all | did not cause any damage at all | 
Cc1c(C(=O)Nc2nnnn2C)ccc2c1SCC=C2 [61-1] | did not cause any damage at all |  | did not cause any damage at all |  | did not cause any damage at all
Cc1c(C(=O)Nc2nnnn2C)ccc2c1S(=O)(=O)CC=C2 [67-1] |  |  | did not cause any damage at all | did not cause any damage at all | 
Cc1c(C(=O)Nc2nnnn2C)ccc2c1S(=O)(=O)C=C2 [7-1] | did not cause any damage at all |  |  |  | 
CC1=Cc2c(ccc(C(=O)Nc3nonc3C)c2Cl)S1(=O)=O [17-19] | did not cause any damage at all | did not cause any damage at all | did not cause any damage at all |  | did not cause any damage at all
